Values of other authors as cited in patent US10894072B2, “Compositions and methods for treating fibromyalgia” (Quality IP Holdings, LLC, priority 2017, dated 2021).

Columns and labels:
hGH = settings: for Increase in hGH: other amino acids
IGF-1 and IGF-BP3 = settings: patients with fibromyalgia, 4 days treatment
[1] = subcutaneous injection of 0.06 IU, hGH deficient subjects
fibromyalgia [2] = system: fibromyalgia
[3] = hGH-deficient adults, within months of treatment
fibromyalgia [4] = system: fibromyalgia; remark: listed apart in the source
fibromyalgia [5] = system: fibromyalgia; remark: listed apart in the source

## NCCCC[C@H](N)C(=O)O [lysine]
hGH
  Increase in hGH: marked increases

## CSCC[C@H](N)C(=O)O [methionine]
hGH
  Increase in hGH: marked increases

## hGH: human growth hormone, given by injection in cited studies
IGF-1 and IGF-BP3
  Plasma IGF-1 and IGF-BP3 levels: increase
[1]
  Mean levels of hGH reached: 0.4 ng/mL
Fibromyalgia [2]; hGH added to standard treatment, sustained action over time
  Pain: effective in reducing pain
Fibromyalgia [2]; low-dose hGH added to standard treatment
  FIQ scores compared with placebo group: significantly improved
[3]
  Lean body mass, skin thickness and muscle mass: gains
Fibromyalgia [4]; at nine months
  FIQ score and tender point score over the placebo group: significant improvement
Fibromyalgia [4]; daily hGH injections
  IGF-1 levels: prompt and sustained increase
Fibromyalgia [5]; end of one-year study, subcutaneous hGH added to standard therapy
  Reduction in the mean number of tender points (pairs) compared to the control group: 60%
Fibromyalgia [5]; human, in vivo
  Tolerability: well tolerated

## N=C(N)NCCC[C@H](N)C(=O)O [arginine]
hGH; 30 g, males
  Elevation of serum hGH levels: 8.6 fold
hGH; intravenous infusion of 183 mg/kg body weight, females
  Increase of hGH levels: > 20 fold

## NCCC[C@H](N)C(=O)O [ornithine]
hGH
  Increase in hGH: marked increases

## N[C@@H](Cc1ccccc1)C(=O)O [phenylalanine]
hGH
  Increase in hGH: marked increases

## N[C@@H](Cc1c[nH]cn1)C(=O)O [histidine]
hGH
  Increase in hGH: marked increases
